“And” between values parts separate entries of the source, which are not always exact repeats. Equal entries are not always repeated. Where two headings read alike, the source gives them in different places. One block for each molecule: values may come before it.
Tests used:
TRPV2 = target: T1, TRPV2 (Homo sapiens, UniProt Q9Y5S1); assay: Intracellular Ca2+ signal measurements (Fluo-4-AM) in hCMEC/D3 cells; assay type: cell-based; settings: for effect on heat-induced [Ca2+]i signals: heat stimulation
T1 construct: endogenous in cells; host or cells: hCMEC/D3 (human cerebral microvessel endothelial cell line)
T1 sequence (Q9Y5S1 1-764): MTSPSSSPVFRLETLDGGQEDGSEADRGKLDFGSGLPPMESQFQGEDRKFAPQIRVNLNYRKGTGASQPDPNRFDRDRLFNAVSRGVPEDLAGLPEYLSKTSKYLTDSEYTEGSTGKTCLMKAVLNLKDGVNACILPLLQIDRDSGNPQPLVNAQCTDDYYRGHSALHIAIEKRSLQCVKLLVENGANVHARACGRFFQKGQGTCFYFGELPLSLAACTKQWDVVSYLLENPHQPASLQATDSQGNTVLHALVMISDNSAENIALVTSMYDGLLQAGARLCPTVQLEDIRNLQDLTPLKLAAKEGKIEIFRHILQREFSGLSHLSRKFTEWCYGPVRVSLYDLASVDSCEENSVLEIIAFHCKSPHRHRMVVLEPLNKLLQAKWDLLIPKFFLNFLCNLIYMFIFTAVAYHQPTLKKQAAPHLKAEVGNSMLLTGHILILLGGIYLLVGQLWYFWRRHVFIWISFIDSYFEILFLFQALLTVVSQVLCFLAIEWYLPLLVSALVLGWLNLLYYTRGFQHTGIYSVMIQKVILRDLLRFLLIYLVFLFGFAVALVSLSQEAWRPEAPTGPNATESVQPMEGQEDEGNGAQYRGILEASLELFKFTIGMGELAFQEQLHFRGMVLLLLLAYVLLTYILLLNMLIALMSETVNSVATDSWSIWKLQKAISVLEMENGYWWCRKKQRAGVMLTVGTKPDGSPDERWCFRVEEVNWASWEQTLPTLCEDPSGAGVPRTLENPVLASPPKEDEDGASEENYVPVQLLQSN
Description: Fluorescence measurement of intracellular Ca2+ ([Ca2+]i) concentration was performed in accordance with our optimized protocol as below: hCMEC/D3 cells grown at 100% confluence in 24-well plates were loaded with 2 μM of fluorescent marker, Fluo-4-AM (λex=496 nm, λem=516 nm, F14201, Thermo Fisher Scientific) for 45 min at 37° C. in a loading Hank's buffer (500 μL/well). The cells were washed and replaced with 500 μL/well buffer. After additional 10 min of incubation at 37° C., the 24-well plates were placed into a Victor™ X2 fluorescent heated microplate reader (PerkinElmer, France). When applying antagonists, cells were pre-treated with the compound for 5 min before to start fluorescent signals recording. Data are expressed as F1/F0, where F0 is the average fluorescence of the control group (no agent or no heat stimulation application) and F1 is the actual fluorescence at the corresponding time for the treated group. To visualize clearly and directly the effect of the chemical agonist and antagonist on [Ca2+]i change, hCMEC/D3 cells were seeded in a 8-well ibidi (1.5 polymer coverslip, CliniSciences). Then, the μ-Slide containing 250 μL/well normal buffer was placed on the platform of a ZEISS 515 […] confocal microscope (Carl Zeiss), and fluo-4-AM loaded cells were photographed using a time-lapse mode every 60 s during 20 min in a humidified 5% CO2 atmosphere at 37° C. Images of hCMEC/D3 were analysed in Fiji app running Image J software.
(§1) Data are expressed as mean value±SEM. Statistical analysis was performed using ANOVA with Dunnett a posteriori test to compare different groups with the control. P value<0.05 was considered statistically significant. […] To calculate IC50 of antagonists (RR and TNL), the concentration-response data were fitted to a logistic function as follows: Y=100/(1+10(log IC50−X)×HillSlope) where Y is the normalized response from 100% down to 0%, X is the decimal log of concentration, HillSlope is the slope. Data fitting was all performed in GraphPad Prism 5.01 software.

[1] = MTT cell viability assay in hCMEC/D3 cells; assay type: cell-based, human; settings: human, read-out: decrease of cell viability (MTT)
Text: (§2) To study the effects of TRPV2 agonists and antagonists and silencing TRPV2 on cell viability, the 3-(4,5-dimethyl-2-thiazolyl)-2,5-diphenyl-2-H-tetrazolium bromide assay (MTT, Sigma-Aldrich) evaluating cell mitochondrial activity and Trypan blue exclusion assay evaluating living cells were applied. Cells were firstly treated under three conditions mentioned above (Control, negative siRNA, and TRPV2 siRNA) in a 6-well plate. After transfection, cells were re-distributed in a new plate with the same cell number and the same medium in each well. Cell viability were analysed at 0, 24 h, 48 h, 72 h after re-distribution. For MTT assay, cells were re-distributed in 96-well plates at a density of 1×10^4 cells/well, 6 wells per group, one plate four each time. For Trypan blue exclusion assay, cells were re-distributed in 24-well plates at a density of 5×10^4 cells/well. The number of living cells (not stained by Trypan blue) in each well was counted in a TC20™ Automated Cell Counter (Bio-Rad) at each time point, with 3 wells per group.
(§3) After 24 h treatment, the wells were replaced with 100 μL/well fresh complete medium, and 20 μL MTT solution (diluted in PBS buffer, 5 mg·mL-1) was added to each well. And, the plates were kept at 37° C. for an additional 4 h. Then the medium was removed and replaced with 100 μL DMSO per well, in order to dissolve the formazan. The plates were read using a Victor™ X2 microplate reader at 490 nm (PerkinElmer).
as §1

hCMEC/D3 cells [2] = assay: MTT cell viability assay in hCMEC/D3 cells; assay type: cell-based, human; settings: for CBD-induced proliferation level (MTT, CTL=100%): 3 μM CBD
Text: as §2, §3, §1

hCMEC/D3 cells [3] = assay: Trypan blue exclusion assay (number of viable cells) in hCMEC/D3 cells; assay type: cell-based, human
Text: as §2

hCMEC/D3 cells [4] = assay: ATP CellTiter-Glo luminescent cell viability assay in hCMEC/D3 cells; assay type: cell-based, human
Description: FIG. 4: Pharmacological and genetic inhibition of TRPV2 reverse CBD-induced cell death of hCMEC/D3 cells. […] Cell viability was measured by ATP CellTiter-Glo luminescent cell viability assay. […] Cell viability was measured by ATP CellTiter-Glo luminescent cell viability assay. […] (D) Effect of silencing TRPV2 in CBD-induced cell cytotoxicity. […] Data are expressed as mean±SEM.
To further validate the involvement of TRPV2 in CBD-induced cell death of hCMEC/D3 cells, pharmacological and genetic inhibition strategies were used. The number of viable cells was evaluated by quantitating total ATP in cells treated by CBD. […] This further indicates the role of TRPV2 at least partly in the CBD-induced cell death.

hCMEC/D3 cells [5] = assay: Wound healing migration assay in hCMEC/D3 cells; assay type: cell-based, human; settings: for effect on cell migration vs control group: 3 μM CBD
Description: Cell migration was determined with wound healing assay in hCMEC/D3 as reported previously20. Briefly, a standard wound was created by scratching the cell monolayer of hCMEC/D3 cells with a sterile 200 μL plastic pipette tip and line makers were made at the bottom of plates to indicate the wound edges. After removing cell fragments, the cells were incubated at 37° C. with medium containing 5% FBS. In order to minimize avoid the effect of cell proliferation on would healing assay, the medium was absent of bFGF. The areas of the wound and wound repair activity were photographed by phase contrast microscope (Olympus, Japan) at 0, 4, 8, 24 h. […] After 3 days, cells were prepared for wound healing assay with 100% confluence. […] To study the effects of silencing TRPV2 channel on cell proliferation, the cells were firstly treated under three conditions mentioned above (Control, negative siRNA, and TRPV2 siRNA) in a 6-wells plate. After transfection, the cells were re-distributed in 12-well plate at a density of 5×10^5 cells/well in 750 μL complete culture medium. When cells were 100% confluent, the wound healing assay was started following the above-mentioned protocol. Assays were performed 3 times in triplicate.

hCMEC/D3 cells [6] = assay: Tubulogenesis, 3D culture of hCMEC/D3 cells in Matrigel; assay type: cell-based, human; settings: for increase of closing tube number vs control group: 3 μM CBD
Description: 3D culture of hCMEC/D3 human BBB endothelial cells was performed using Matrigel (Corning). Matrigel, stored at 4° C. at least 24 h before the assay, was added to a 48-well plate (150 μL/well), and then the plate was incubated at 37° C. for 1 h to allow Matrigel polymerization. […] 500 μL/well fresh complete medium containing cells were distributed in the 48-well plate. After 2 h, 7 h and 24 h incubation, images of the wells in the plate were taken. […] Assays were performed 3 times in triplicate and tubule-like structure lumen count was realized with Image J software.

hPBMEC monolayers = assay: TEER of in vitro human BBB model using hPBMECs on Transwell; assay type: cell-based; settings: 50 μM TNL co-treatment with 1 μM CBD
Description: Human Primary Brain Microvascular Endothelial Cells (hPBMECs). Brain capillary endothelial cells were isolated from surgical resections of patients with brain tumors. […] In brief, brain capillaries were isolated using soft digestion of patient brain peritumoral tissues and then seeded. Brain primary microvascular endothelial cells were shortly amplified and seeded on Transwell® (Corning) with microporous membranes (pore size: 0.4 μm) in monoculture or in co-culture with the same patient's fresh primary human cultured astrocytes. Cells were cultured in EBM-2 medium (Lonza, Basel, Switzerland) supplemented with 20% serum and growth factors (Sigma).
After 24 h co-culture, CBD (1 μM) or the same proportion of vehicle was added into the cell inserts. To study the involvement of TRPV2 in CBD-induced effect, cells were pre-treated with 50 μM TNL for 5 min before adding CBD. The TEER values expressed in Ω·cm2 were recorded after 1, 2, 4, 10, 24, 31, 48, 72, 96, 120 h of CBD treatment.

SMILES: C=C(C)[C@@H]1CCC(C)=C[C@H]1c1c(O)cc(CCCCC)cc1O [CBD, cannabidiol]
increase of [Ca2+]i area under the curve (AUC) vs control (TRPV2; 30 μM CBD, 20 min incubation): 1.5 fold
lowest concentration with significant increase of [Ca2+]i AUC (TRPV2; 20 min incubation): 0.3 µM
cytotoxicity at 24 h, 15 μM ([1]; hCMEC/D3 cells silenced for TRPV2 (TRPV2 siRNA)): 6%
cytotoxicity at 24 h, 15 μM ([1]; hCMEC/D3 cells treated with negative (NEG) siRNA): 27%
cytotoxicity at 24 h, 15 μM ([1]; hCMEC/D3 cells): 37%
cytotoxicity at 48 h, 15 μM ([1]; hCMEC/D3 cells): 77%
cytotoxicity at 72 h, 15 μM ([1]; hCMEC/D3 cells): 78%
CBD-induced proliferation level (MTT, CTL=100%) (hCMEC/D3 cells [2]; 24 h, siNEG cells): 125.9±4.0%
CBD-induced proliferation level (MTT, CTL=100%) (hCMEC/D3 cells [2]; 24 h, siTRPV2 cells): 113.0±2.1%
increase of MTT absorbance vs control group (hCMEC/D3 cells [2]; 10 μM CBD, 24 h): 22.0±1.2%
lowest concentration with significantly increased MTT absorbance (hCMEC/D3 cells [2]; 24 h): 0.3 µM
EC50 (hCMEC/D3 cells [2]; Homo sapiens, hCMEC/D3, 24 h, read-out: EC50 of CBD effect on MTT absorbance (cell viability)): ~0.3 µM
increase of the number of viable cells (hCMEC/D3 cells [3]; 3 μM CBD): 1.2 fold
effect on cell viability (ATP) (hCMEC/D3 cells [4]; 30 μM CBD, 2 h): significantly decreased
effect on cell migration vs control group (hCMEC/D3 cells [5]; 4 h post wound): significant pro-migration effect
effect on cell migration vs control group (hCMEC/D3 cells [5]; 8 h post wound, p<0.05): significant increase
increase of closing tube number vs control group (hCMEC/D3 cells [6]; 7 h): 41% and 42.0±14.0%
increase of closing tube number vs control group (hCMEC/D3 cells [6]; 24 h): 73% and 73.0±15.3%

SMILES: CC(C)C[C@H](NC(=O)c1cc2ccccc2s1)C(=O)N1CCN(C(=O)[C@H](CO)NS(=O)(=O)c2ccc(Cl)cc2Cl)CC1 [GSK1016790A]
effect on cell viability (MTT) (hCMEC/D3 cells [2]; GSK1016790A 1 μM, 24, 48 or 72 h): did not alter cell viability

SMILES: N.N.N.N.N.N.N.N.N.N.N.N.N.N.[Cl-].[Cl-].[Cl-].[Cl-].[Cl-].[Cl-].[O-2].[O-2].[Ru+3].[Ru+3].[Ru+4] [RR, ruthenium red]
effect on CBD-induced elevation of [Ca2+]i (TRPV2; 10 μM RR pretreatment, 15 μM CBD): fully abolished
IC50 (TRPV2; 15 μM CBD, antagonist pre-treatment 5 min, read-out: IC50 of inhibition of CBD-mediated elevation of [Ca2+]i): 7.7 ± 1.7 µM
effect on heat-induced [Ca2+]i signals (TRPV2; RR): significantly decreased

effect on CBD-mediated lasting elevation of [Ca2+]i (TRPV2; 100 μM TNL, 15 μM CBD): fully abolished
effect on heat-induced [Ca2+]i signals (TRPV2; TNL 50 or 100 μM): significantly decreased
SMILES: COc1ccc(/C=C/C(=O)Nc2ccccc2C(=O)O)cc1OC [TNL, tranilast]
effect on CBD-induced increase of viable cells (hCMEC/D3 cells [3]; 50 μM TNL with 3 μM CBD): totally inhibited
effect on CBD-induced decrease in cell viability (ATP) (hCMEC/D3 cells [4]; 50 μM TNL, 15 μM CBD, 48 h): partly reversed
effect on CBD-induced decrease in cell viability (ATP) (hCMEC/D3 cells [4]; 100 μM TNL, 30 μM CBD, 2 h): reversed
effect on pro-migration effect of CBD (hCMEC/D3 cells [5]; 50 μM TNL co-treatment with 3 μM CBD, 8 h): totally inhibited
effect on CBD-induced tube formation (hCMEC/D3 cells [6]; 50 μM TNL co-treatment with 3 μM CBD, 7 h): inhibited
effect on CBD-induced tube formation (hCMEC/D3 cells [6]; 50 μM TNL with 3 μM CBD, 24 h): totally reversed
effect on CBD-induced TEER increase (hPBMEC monolayers): totally inhibited
